Measured values taken from patent US11857513B2, “Selective inhibitor of exon 20 insertion mutant EGFR” (Taiho Pharmaceutical Co., Ltd., priority 2016, dated 2024).
Read-outs that look alike come from different tables or passages of the source.

Columns and labels:
[1] = system: H1975-EGFRinsSVD-Luc cells; test: Life-extending effect, nude mice transplanted with H1975-EGFRinsSVD-Luc cells in the lung; details: H1975 EGFR insSVD in lung, 20 mg/kg orally once daily
Protocol: H1975-EGFRinsSVD-Luc strain was established by introducing a luciferase into H1975-EGFRinsSVD, which is a human mutant EGFR-introduced cell line. A pJTI (trademark) Fast DEST vector, which was prepared by encoding a Luciferase into NCI-H1975-EGFRinsSVD cells, was introduced into […], together with a pJTI (trademark) PhiC31 integrase expression vector, by electroporation using an Amaxa (trademark) Cell Line Nucleofector (trademark) Kit R, followed by selection using hygromycin B (Nacalai Tesque Inc.).
In evaluation of the life-extending effect, an equivalent amount of Matrigel was added to a suspension of cultured H1975-EGFRinsSVD-Luc cells to prepare a cell suspension, and the cell suspension was transplanted into the right lung of nude mice. On day 6 after transplantation, all of the living mice were administered a luciferin through the tail vein, and allocated into groups, 9 mice for each group, by stratified randomization such that the average luminescence intensity between the groups was uniform. […] The maximum tolerated dose was determined in accordance with the “Guidelines Involving Experimental Neoplasia Proposals in Mice and Rats” of the National Cancer Institute (NCI), from a humanitarian perspective.
To evaluate the life-extending effect, the survival period after transplantation was observed, and the survival time of each mouse was determined. From the survival time, the median survival time (which hereinafter also referred to as “MST”) of each group was calculated, and the survival period-extending effect (i.e., an increase in lifespan, which hereinafter also referred to as “I.L.S. (%)”) was calculated based on MST of the control group and the group administered with a test compound, using the following formula. For a toxicity index, the body weight was measured over time, and the body weight change (which hereinafter also referred to as “BWC (%)”) from the day on which the mice were divided into groups was calculated in accordance with the following formula.
T: MST of the group administered with a test compound
C: MST of the control group
(§1) BWC (%)=(the body weight measured on body weight measurement day)/(the body weight on the day mice were divided into groups)

NIH3T3-EGFRinsASV cells = test: Antitumor effect, nude mice subcutaneously transplanted with NIH3T3-EGFRinsASV cells; type: in vivo, mouse; details: 20 mg/kg orally once daily, 14 days
Protocol: (§2) Nude mice were subcutaneously transplanted with NIH3T3-EGFRinsASV cells, NIH3T3-EGFRinsSVD cells, or H1975-EGFRinsSVD cells to which human mutant EGFR was introduced. At the point at which the tumor volume of the tumor engrafted in the nude mice grew to about 100 to 200 mm^3, the mice were allocated into groups, 5 to 6 mice for each group, by stratified randomization such that the average tumor volume between the groups was uniform.
(§3) The maximum tolerated dose was determined in accordance with the “Guidelines Involving Experimental Neoplasia Proposals in Mice and Rats” of the National Cancer Institute (NCI), from a humanitarian perspective.
(§4) To compare the changes in growth of tumor over time due to administration of the individual test compounds, a relative tumor volume (which hereinafter also referred to as “RTV”) was calculated based on the tumor volume at the time the mice were divided into groups (which is taken as 1 for the tumor growth ratio), using the following formula. For a toxicity index, the body weight was measured over time, and the average body weight change (which hereinafter also referred to as “BWC (%)”) from the day on which the mice were divided into groups was calculated in accordance with the following formula.
(§5) RTV=(the tumor volume on the day a tumor volume was measured)/(the tumor volume on the day mice were divided into groups) […]

NIH3T3-EGFRinsSVD cells = test: Antitumor effect, nude mice subcutaneously transplanted with NIH3T3-EGFRinsSVD cells; type: in vivo, mouse; details: 20 mg/kg orally once daily, 14 days
Protocol: as §2, §3, §4, §5

NIH3T3-EGFRinsNPH cells = test: Antitumor effect, nude mice subcutaneously transplanted with NIH3T3-EGFRinsNPH cells; details: NIH3T3 EGFRinsNPH, 20 mg/kg orally once daily, 10 days
Protocol: as §2, with “with NIH3T3-EGFRinsNPH” for “with NIH3T3-EGFRinsASV cells, NIH3T3-EGFRinsSVD cells, or H1975-EGFRinsSVD”, “cells into” for “cells to”, “groups,” for “groups, 5 to”
as §3
To compare the changes in growth of tumor over time due to administration of the individual test compounds, the tumor volume (which hereinafter also referred to as “TV”) of each mouse was calculated using the following formula. For a toxicity index, the body weight was measured over time, and the body weight change (which hereinafter also referred to as “BWC (%)”) from the day on which the mice were divided into groups was calculated in accordance with the following formula. FIGS. 9 and 10 illustrate changes in the average TV and the average BWC of the mice.
TV (mm^3)=(the major axis x the short axis^2)/2
as §1
The T/C (%) on the final evaluation day was calculated in accordance with the following formula.
T/C (%)=(the tumor volume of the group administered with a test compound)/(the tumor volume of the control group)

[2] = Time of maximum blood concentration after oral administration in nude mice; type: in vivo, mouse; details: single oral administration, around
H1975-EGFRinsSVD cells [3] = test: Antitumor effect, nude mice subcutaneously transplanted with H1975-EGFRinsSVD cells; type: in vivo, mouse; details: 20 mg/kg orally once daily, 14 days
Protocol: as §2, §3, §4, §5

A431 cells = test: Cell growth inhibitory effect on wild-type EGFR-expressing human cell line (CellTiter-Glo); type: cell-based; details: A-431, 72 h, read-out: GI50 A431
Protocol: (§6) To evaluate the inhibitory activity of compounds against wild-type EGFR and mutant EGFR, the following cells were used: NCI-H1975 cells, which are human pulmonary adenocarcinoma cell lines expressing EGFR with mutation D770_N771insSVD by gene modification (which hereinafter also referred to as “H1975-EGFRinsSVD”); and A431 cells, which are human epithelial cancer cell lines expressing wild-type EGFR. H1975-EGFRinsSVD cells were prepared as follows. […] XTN (trademark) TALENs Site-Specific Nucleases (Transposagen) were introduced into the cells by electroporation using the Amaxa (trademark) Cell Line Nucleofector (trademark) Kit R, and endogenous-EGFR (T790M/L858R)-knockout cells were selected by sequencing.
(§7) To evaluate the cell growth inhibitory effect, individual types of cells were suspended in a medium recommended by ATCC. The cell suspensions were seeded in each well of respective 96-well flat-bottom plates such that the cell count per well was 3,000, and incubated in a 5% CO2-containing incubator at 37° C. for 1 day. […] The cell count at the time incubation started (day 0) and the cell count after incubation (day 3) were measured using a CellTiter-Glo (trademark) Luminescent Cell Viability Assay (Promega Corporation) in accordance with the manufacturer's recommended protocol.
(§8) 1) If T on day 3≥C on day 0: Growth Rate (%)=(T on day 3−C on day 0)/(C on day 3−C on day 0)×100 T: the luminescence intensity of a well to which a test compound was added. C: the luminescence intensity of a well to which the test compound was not added. Day 0: the day on which a test compound was added. Day 3: the day on which evaluation was performed. 2) If T on day 3<C on day 0: Growth Rate (%)=(T on day 3−C on day 0)/(C on day 0)×100 T: the luminescence intensity of a well to which a test compound was added. C: the luminescence intensity of a well to which the test compound was not added. Day 0: the day on which a test compound was added. Day 3: the day on which evaluation was performed.

H1975-EGFRinsSVD cells [4] = test: Cell growth inhibitory effect on mutant EGFR-expressing human cell line (CellTiter-Glo); type: cell-based; details: Homo sapiens, NCI-H1975, 72 h, read-out: GI50 H1975 EGFRinsSVD
Protocol: as §6, §7, §8
Additionally, the ratio of GI50between wild-type EGFR and EGFR exon 20 insertion mutation was determined using the following formula.
GI50 (A431): GI50 for wild-type EGFR
GI50 (H1975 EGFRinsSVD): GI50 for EGFR exon 20 insertion mutation

SMILES: CN(C)C/C=C/C(=O)Nc1cc2c(Nc3ccc(F)c(Cl)c3)ncnc2cc1O[C@H]1CCOC1 [Afatinib, afatinib, reference compound]
- I.L.S. (%) (increase in lifespan) [1]: 23%
- MST (median survival time) [1]: 54
- T/C (%) on the final evaluation day (NIH3T3-EGFRinsASV cells): 46%
- T/C (%) on the final evaluation day (NIH3T3-EGFRinsSVD cells): 39%
- T/C (%) on the final evaluation day (NIH3T3-EGFRinsNPH cells): 59%
- time at which the maximum blood concentration is achieved [2]: three hours
- T/C (%) on the final evaluation day (H1975-EGFRinsSVD cells [3]): 79%

SMILES: C=CC(=O)N[C@H]1CCc2c(-c3cnc4ccccc4c3)c3c(N)ncnc3n2C1 [Comparative Compound, (S)—N-(4-amino-5-(quinolin-3-yl)-6,7,8,9-tetrahydropyrimido[5,4-b]indolizin-8-yl)acrylamide, reference compound]
- GI50 (A431 cells; A431, wild-type EGFR, 3 days): 543 nM
- GI50 (H1975-EGFRinsSVD cells [4]; H1975-EGFRinsSVD, D770_N771insSVD, 3 days): 364 nM

SMILES: C=CC(=O)Nc1cc(Nc2nccc(-c3cn(C)c4ccccc34)n2)c(OC)cc1N(C)CCN(C)C [Osimertinib, osimertinib, reference compound]
- GI50 (H1975-EGFRinsSVD cells [4]): 194 nM
